PubChem BioAssay AID2060898 (Molecular Pharmacology Branch, DTP, NCI, 2025)

Test system: 616215-338-R-J1-PDC complex spheroid viability
Test: Anticancer human tumor 616215-338-R-J1-PDC patient-derived colon adenocarcinoma cell line growth inhibition [RAS]
Conditions: for IC50: curve of first compound; for viability, T/C: stronger effect = lower value
Outline: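 Tumour cells grown as complex spheroids with HUVEC endothelial cells and mesenchymal stem cells, treated with RAS pathway inhibitor combinations. Each agent spans half-log steps from near clinical Cmax, or 10 microM where Cmax is unknown.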

[1] = second compound 0.000949 µM, first compound 0.000949 µM
[2] = second compound 0.000949 µM, first compound 0.003 µM
[3] = second compound 0.000949 µM, first compound 0.00949 µM
[4] = second compound 0.000949 µM, first compound 0.03 µM
[5] = second compound 0.000949 µM, first compound 0.0949 µM
[6] = second compound 0.000949 µM, first compound 0.3 µM
[7] = second compound 0.003 µM, first compound 0.000949 µM
[8] = second compound 0.003 µM, first compound 0.003 µM
[9] = second compound 0.003 µM, first compound 0.00949 µM
[10] = second compound 0.003 µM, first compound 0.03 µM
[11] = second compound 0.003 µM, first compound 0.0949 µM
[12] = second compound 0.003 µM, first compound 0.3 µM
[13] = second compound 0.00949 µM, first compound 0.000949 µM
[14] = second compound 0.00949 µM, first compound 0.003 µM
[15] = second compound 0.00949 µM, first compound 0.00949 µM
[16] = second compound 0.00949 µM, first compound 0.03 µM
[17] = second compound 0.00949 µM, first compound 0.0949 µM
[18] = second compound 0.00949 µM, first compound 0.3 µM
[19] = second compound 0.03 µM, first compound 0.000949 µM
[20] = second compound 0.03 µM, first compound 0.003 µM
[21] = second compound 0.03 µM, first compound 0.00949 µM
[22] = second compound 0.03 µM, first compound 0.03 µM
[23] = second compound 0.03 µM, first compound 0.0949 µM
[24] = second compound 0.03 µM, first compound 0.3 µM
[25] = second compound 0.0949 µM, first compound 0.000949 µM
[26] = second compound 0.0949 µM, first compound 0.003 µM
[27] = second compound 0.0949 µM, first compound 0.00949 µM
[28] = second compound 0.0949 µM, first compound 0.03 µM
[29] = second compound 0.0949 µM, first compound 0.0949 µM
[30] = second compound 0.0949 µM, first compound 0.3 µM
[31] = second compound 0.3 µM, first compound 0.000949 µM
[32] = second compound 0.3 µM, first compound 0.003 µM
[33] = second compound 0.3 µM, first compound 0.00949 µM
[34] = second compound 0.3 µM, first compound 0.03 µM
[35] = second compound 0.3 µM, first compound 0.0949 µM
[36] = second compound 0.3 µM, first compound 0.3 µM
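Also: spheroids exposed to agents for seven days before viability readout.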
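For viability, T/C in this document: 100% = DMSO vehicle control viability.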

For `C=CC(=O)N1CCN(c2nc(OCC3CCCN3C)nc3c(F)c(-c4nc(N)cc(C)c4C(F)(F)F)c(Cl)cc23)C(C)C1` (stereo unspecified) + CCn1c(-c2cccnc2C(C)OC)c2c3cc(ccc31)N1CCOC(CC(NC(=O)C(C(C)C)N(C)C(=O)C3(F)CCN(C(=O)C#CC(C)(C)N(C)C)CC3)C(=O)N3CCCC(N3)C(=O)OCC(C)(C)C2)C1, the IC50 (second compound 0.000949 µM) was greater than 1000 nM, the IC50 (second compound 0.003 µM) was greater than 1000 nM and the IC50 (second compound 0.00949 µM) was greater than 1000 nM. The IC50 (second compound 0.03 µM) was greater than 1000 nM, the IC50 (second compound 0.0949 µM) was greater than 1000 nM and the IC50 (second compound 0.3 µM) was greater than 1000 nM. The viability, T/C (second compound 0.000949 µM, first compound 0.00316 µM) was 106%, the viability, T/C (second compound 0.000949 µM, first compound 0.01 µM) was 100% and the viability, T/C (second compound 0.000949 µM, first compound 0.0316 µM) was 106%. It also gave a viability, T/C (second compound 0.000949 µM, first compound 0.1 µM) of 108%, a viability, T/C (second compound 0.000949 µM, first compound 0.316 µM) of 115% and a viability, T/C (second compound 0.000949 µM, first compound 1 µM) of 103%. For the same molecule, the viability, T/C (second compound 0.003 µM, first compound 0.00316 µM) was 103%, the viability, T/C (second compound 0.003 µM, first compound 0.01 µM) was 114% and the viability, T/C (second compound 0.003 µM, first compound 0.0316 µM) was 100%. For the same molecule, the viability, T/C (second compound 0.003 µM, first compound 0.1 µM) was 111%, the viability, T/C (second compound 0.003 µM, first compound 0.316 µM) was 116% and the viability, T/C (second compound 0.003 µM, first compound 1 µM) was 101%. The viability, T/C (second compound 0.00949 µM, first compound 0.00316 µM) was 106%, the viability, T/C (second compound 0.00949 µM, first compound 0.01 µM) was 101% and the viability, T/C (second compound 0.00949 µM, first compound 0.0316 µM) was 106%. It also gave a viability, T/C (second compound 0.00949 µM, first compound 0.1 µM) of 104%, a viability, T/C (second compound 0.00949 µM, first compound 0.316 µM) of 106% and a viability, T/C (second compound 0.00949 µM, first compound 1 µM) of 100%. For the same molecule, the viability, T/C (second compound 0.03 µM, first compound 0.00316 µM) was 118%, the viability, T/C (second compound 0.03 µM, first compound 0.01 µM) was 110% and the viability, T/C (second compound 0.03 µM, first compound 0.0316 µM) was 105%. For the same molecule, the viability, T/C (second compound 0.03 µM, first compound 0.1 µM) was 115%, the viability, T/C (second compound 0.03 µM, first compound 0.316 µM) was 101% and the viability, T/C (second compound 0.03 µM, first compound 1 µM) was 98.6%. It also gave a viability, T/C (second compound 0.0949 µM, first compound 0.00316 µM) of 135%, a viability, T/C (second compound 0.0949 µM, first compound 0.01 µM) of 113% and a viability, T/C (second compound 0.0949 µM, first compound 0.0316 µM) of 109%. The viability, T/C (second compound 0.0949 µM, first compound 0.1 µM) was 127%, the viability, T/C (second compound 0.0949 µM, first compound 0.316 µM) was 126% and the viability, T/C (second compound 0.0949 µM, first compound 1 µM) was 116%. For the same molecule, the viability, T/C (second compound 0.3 µM, first compound 0.00316 µM) was 117%, the viability, T/C (second compound 0.3 µM, first compound 0.01 µM) was 108% and the viability, T/C (second compound 0.3 µM, first compound 0.0316 µM) was 107%. For the same molecule, the viability, T/C (second compound 0.3 µM, first compound 0.1 µM) was 112%, the viability, T/C (second compound 0.3 µM, first compound 0.316 µM) was 113% and the viability, T/C (second compound 0.3 µM, first compound 1 µM) was 107%.

With `CC1(C)CCC(Nc2ncc(C(F)(F)F)c(-c3c[nH]c4c(P(C)(C)=O)c(C#N)ccc34)n2)CN1` (stereo unspecified) + CCn1c(-c2cccnc2C(C)OC)c2c3cc(ccc31)N1CCOC(CC(NC(=O)C(C(C)C)N(C)C(=O)C3(F)CCN(C(=O)C#CC(C)(C)N(C)C)CC3)C(=O)N3CCCC(N3)C(=O)OCC(C)(C)C2)C1 the IC50 (second compound 0.000949 µM) was 15.8 nM, the IC50 (second compound 0.003 µM) was 15.3 nM and the IC50 (second compound 0.00949 µM) was 13.9 nM. For the same molecule, the IC50 (second compound 0.03 µM) was 13.3 nM, the IC50 (second compound 0.0949 µM) was 9.25 nM and the IC50 (second compound 0.3 µM) was 8.41 nM. The viability, T/C [1] was 108%, the viability, T/C [2] was 107% and the viability, T/C [3] was 62.8%. For the same molecule, the viability, T/C [4] was 34.2%, the viability, T/C [5] was 33.9% and the viability, T/C [6] was 31.9%. The viability, T/C [7] was 107%, the viability, T/C [8] was 111% and the viability, T/C [9] was 60.2%. The viability, T/C [10] was 39.3%, the viability, T/C [11] was 32.2% and the viability, T/C [12] was 35.2%. It also gave a viability, T/C [13] of 113%, a viability, T/C [14] of 103% and a viability, T/C [15] of 57%. It also gave a viability, T/C [16] of 35.7%, a viability, T/C [17] of 32.9% and a viability, T/C [18] of 36.5%. The viability, T/C [19] was 115%, the viability, T/C [20] was 117% and the viability, T/C [21] was 57%. The viability, T/C [22] was 34.6%, the viability, T/C [23] was 32.9% and the viability, T/C [24] was 32.4%. For the same molecule, the viability, T/C [25] was 119%, the viability, T/C [26] was 93% and the viability, T/C [27] was 50.3%. The viability, T/C [28] was 27.6%, the viability, T/C [29] was 31.2% and the viability, T/C [30] was 27.1%. It also gave a viability, T/C [31] of 95.1%, a viability, T/C [32] of 95.3% and a viability, T/C [33] of 44.8%. The viability, T/C [34] was 28.8%, the viability, T/C [35] was 28.4% and the viability, T/C [36] was 34.6%.

Work on `CCc1c2c(nc3ccc(O)cc13)-c1cc3c(c(=O)n1C2)COC(=O)[C@]3(O)CC` + CCn1c(-c2cccnc2C(C)OC)c2c3cc(ccc31)N1CCOC(CC(NC(=O)C(C(C)C)N(C)C(=O)C3(F)CCN(C(=O)C#CC(C)(C)N(C)C)CC3)C(=O)N3CCCC(N3)C(=O)OCC(C)(C)C2)C1 yielded an IC50 (second compound 0.000949 µM) of 15.3 nM, an IC50 (second compound 0.003 µM) of 13.8 nM and an IC50 (second compound 0.00949 µM) of 14.2 nM. The IC50 (second compound 0.03 µM) was 16.4 nM, the IC50 (second compound 0.0949 µM) was 8.04 nM and the IC50 (second compound 0.3 µM) was 9.13 nM. The viability, T/C [1] was 105%, the viability, T/C [2] was 101% and the viability, T/C [3] was 56.8%. It also gave a viability, T/C [4] of 39%, a viability, T/C [5] of 32.6% and a viability, T/C [6] of 18.1%. It also gave a viability, T/C [7] of 97.9%, a viability, T/C [8] of 99% and a viability, T/C [9] of 56%. It also gave a viability, T/C [10] of 35.8%, a viability, T/C [11] of 30.6% and a viability, T/C [12] of 16.6%. It also gave a viability, T/C [13] of 107%, a viability, T/C [14] of 98.4% and a viability, T/C [15] of 58.1%. The viability, T/C [16] was 32%, the viability, T/C [17] was 30.1% and the viability, T/C [18] was 15.1%. For the same molecule, the viability, T/C [19] was 111%, the viability, T/C [20] was 110% and the viability, T/C [21] was 58.7%. It also gave a viability, T/C [22] of 40.9%, a viability, T/C [23] of 30.8% and a viability, T/C [24] of 16.4%. For the same molecule, the viability, T/C [25] was 99.9%, the viability, T/C [26] was 97.6% and the viability, T/C [27] was 41.9%. The viability, T/C [28] was 33.4%, the viability, T/C [29] was 30.2% and the viability, T/C [30] was 16.6%. It also gave a viability, T/C [31] of 103%, a viability, T/C [32] of 69% and a viability, T/C [33] of 48.1%. The viability, T/C [34] was 37.1%, the viability, T/C [35] was 26% and the viability, T/C [36] was 14.3%.
